Source: patent publication US20230104936A1, “TRPML MODULATORS” (Casma Therapeutics, Inc., priority 2019, published 2023)

System: TFEB
Assay: TFEB nuclear translocation assay, HeLa wt cells
Type: cell-based
Conditions: 2 hrs compound treatment, Table 1 does not say HeLa wt or TRPML1 KO
Procedure, shortened: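 TFEB translocation into the nucleus of HeLa wt cells is scored by high-content immunofluorescence after 2 hrs of compound treatment at 37° C, reported as AC50.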

Q: Which AC50 (Homo sapiens, HeLa, 2 h) does the source give for `COCC1(C)CCN(c2ccccc2NS(=O)(=O)Cc2ccc(S(=O)(=O)COC)cc2)CC1` [Compound A-747, 1-(4-methoxymethanesulfonylphenyl)-N-{2-[4-(methoxymethyl)-4-methylpiperidin-1-yl]phenyl}methanesulfonamide] here?
A: Its AC50 is at least 10 µM.

Q: Which AC50 (Homo sapiens, HeLa, 2 h) does the source give for `COCC1(C)CCN(c2ccccc2NS(=O)(=O)Cc2ccccc2C)CC1` [Compound A-592, N-{2-[4-(methoxymethyl)-4-methylpiperidin-1-yl]phenyl}-1-(2-methylphenyl)methanesulfonamide] here?
A: The AC50 was 8.01 to 9.99 µM.

Q: `CC1(C)CC2(CCN(c3ccccc3NS(=O)(=O)c3ccc(S(C)(=O)=O)c(F)c3)CC2)CO1` [Compound A-660, N-(2-{3,3-dimethyl-2-oxa-8-azaspiro[4.5]decan-8-yl}phenyl)-3-fluoro-4-methanesulfonylbenzene-1-sulfonamide] was tested. Which AC50 (Homo sapiens, HeLa, 2 h) did it give?
A: Its AC50 is 8.01 to 9.99 µM.

Q: How did the AC50 (Homo sapiens, HeLa, 2 h) turn out when `CN(C)S(=O)(=O)c1ccc(S(=O)(=O)N(C)c2cc(F)ccc2N2CCC3(CC2)COC(C)(C)C3)cc1` [Compound A-728, N1-(2-{3,3-dimethyl-2-oxa-8-azaspiro[4.5]decan-8-yl}-5-fluorophenyl)-N1,N4,N4-trimethylbenzene-1,4-disulfonamide] was run?
A: Its AC50 is 2.01 to 8 µM.

Q: Which AC50 (Homo sapiens, HeLa, 2 h) does the source give for `COCC1(C)CCN(c2ccccc2NS(=O)(=O)c2ccc3c(c2)COCC3)CC1` [Compound A-625, N-{2-[4-(methoxymethyl)-4-methylpiperidin-1-yl]phenyl}-3,4-dihydro-1H-2-benzopyran-7-sulfonamide] here?
A: The AC50 was at most 2 µM.

Q: How did the AC50 (Homo sapiens, HeLa, 2 h) turn out when `CN(C)S(=O)(=O)c1ccc(C(Nc2cc(Cl)ccc2N2CCOCC2)C(F)(F)F)cc1` (stereo not shown) [Compound A-356, 4-(1-{[5-chloro-2-(morpholin-4-yl)phenyl]amino}-2,2,2-trifluoroethyl)-N,N-dimethylbenzene-1-sulfonamide] was run?
A: The AC50 was 2.01 to 8 µM.

Q: How did the AC50 (Homo sapiens, HeLa, 2 h) turn out when `Cc1nc(C2CC2)sc1S(=O)(=O)Nc1ccccc1N1CCC(CN2C[C@@H](C)O[C@@H](C)C2)CC1` [Compound A-768, 2-cyclopropyl-N-[2-(4-{[(2R,6S)-2,6-dimethylmorpholin-4-yl]methyl}piperidin-1-yl)phenyl]-4-methyl-1,3-thiazole-5-sulfonamide] was run?
A: Its AC50 is at most 2 µM.

Q: For `COCC1(C)CCN(c2ccccc2NS(=O)(=O)Cc2cccc(F)c2)CC1` [Compound A-594, 1-(3-fluorophenyl)-N-{2-[4-(methoxymethyl)-4-methylpiperidin-1-yl]phenyl}methanesulfonamide], which AC50 (Homo sapiens, HeLa, 2 h) is on record?
A: Its AC50 is 2.01 to 8 µM.

Q: Which AC50 (Homo sapiens, HeLa, 2 h) does the source give for `CN(C)S(=O)(=O)c1ccc(S(=O)(=O)Nc2cccc(F)c2N2CCC3(CCNC3=O)CC2)cc1` [Compound A-792, N4-(3-fluoro-2-{1-oxo-2,8-diazaspiro[4.5]decan-8-yl}phenyl)-N1,N1-dimethylbenzene-1,4-disulfonamide] here?
A: The AC50 was at least 10 µM.

Q: For `CN(C)S(=O)(=O)c1ccc(S(=O)(=O)Nc2cccc(Cl)c2N2CCOCC2)cc1` [Compound A-311, N4-[3-chloro-2-(morpholin-4-yl)phenyl]-N1,N1-dimethylbenzene-1,4-disulfonamide], which AC50 (Homo sapiens, HeLa, 2 h) is on record?
A: Its AC50 is 2.01 to 8 µM.

Q: Which AC50 (Homo sapiens, HeLa, 2 h) does the source give for `CN(C)S(=O)(=O)c1ccc(S(=O)(=O)Nc2ccccc2N2CCC(C)(C(=O)NC(C)(C)C)CC2)cc1` [Compound A-361, N-tert-butyl-1-{2-[4-(dimethylsulfamoyl)benzenesulfonamido]phenyl}-4-methylpiperidine-4-carboxamide] here?
A: Its AC50 is at most 2 µM.

Q: How did the AC50 (Homo sapiens, HeLa, 2 h) turn out when `CN(C)S(=O)(=O)c1ccc(S(=O)(=O)Nc2cccc(C#N)c2N2CCC3(CC2)COC(C)(C)C3)cc1` [Compound A-724, N4-(3-cyano-2-{3,3-dimethyl-2-oxa-8-azaspiro[4.5]decan-8-yl}phenyl)-N1,N1-dimethylbenzene-1,4-disulfonamide] was run?
A: The AC50 was at most 2 µM.

Q: With `COc1ccc(S(=O)(=O)Nc2ccc3c(cnn3C)c2N2CCN(c3ncc(Cl)cc3F)CC2)cc1` [Compound A-140, N-{4-[4-(5-chloro-3-fluoropyridin-2-yl)piperazin-1-yl]-1-methyl-1H-indazol-5-yl}-4-methoxybenzene-1-sulfonamide] as the molecule, how does the AC50 (Homo sapiens, HeLa, 2 h) read?
A: The AC50 was at most 2 µM.

Q: For `O=S(=O)(Nc1ccccc1N1CCC(c2ccc(Cl)cc2F)CC1)c1ccc(F)c(F)c1` [Compound A-80, N-{2-[4-(4-chloro-2-fluorophenyl)piperidin-1-yl]phenyl}-3,4-difluorobenzene-1-sulfonamide], which AC50 (Homo sapiens, HeLa, 2 h) is on record?
A: Its AC50 is 2.01 to 8 µM.

Q: How did the AC50 (Homo sapiens, HeLa, 2 h) turn out when `CN1CC2(CCN(c3ccc(Cl)cc3NS(=O)(=O)c3ccc4c(c3)CCC4)CC2)c2ccc(F)cc21` [Compound A-439, N-(5-chloro-2-{6-fluoro-1-methyl-1,2-dihydrospiro[indole-3,4′-piperidin]-1′-yl}phenyl)-2,3-dihydro-1H-indene-5-sulfonamide] was run?
A: Its AC50 is at most 2 µM.

Q: Which AC50 (Homo sapiens, HeLa, 2 h) does the source give for `COCCS(=O)(=O)Nc1cccc(Cl)c1N1CCOCC1` [Compound A-364, N-[3-chloro-2-(morpholin-4-yl)phenyl]-2-methoxyethane-1-sulfonamide] here?
A: The AC50 was at least 10 µM.

Q: `O=S(=O)(Nc1cccc(N2CCC(c3ccc(Cl)cc3F)CC2)c1)c1ccccc1F` [Compound A-114, N-{3-[4-(4-chloro-2-fluorophenyl)piperidin-1-yl]phenyl}-2-fluorobenzene-1-sulfonamide] was tested. Which AC50 (Homo sapiens, HeLa, 2 h) did it give?
A: The AC50 was at least 10 µM.

Q: `CC(c1cccc(F)c1N1CCCCC1)S(=O)(=O)c1ccc(S(=O)(=O)C(F)F)cc1` (stereo not shown) [Compound A-973, 1-{2-[1-(4-difluoromethanesulfonylbenzenesulfonyl)ethyl]-6-fluorophenyl}piperidine] was tested. Which AC50 (Homo sapiens, HeLa, 2 h) did it give?
A: The AC50 was at most 2 µM.

Q: How did the AC50 (Homo sapiens, HeLa, 2 h) turn out when `CC1(C)CC2(CCN(c3ccccc3NS(=O)(=O)c3ccc4c(c3)CCOC4)CC2)CO1` [Compound A-726, N-(2-{3,3-dimethyl-2-oxa-8-azaspiro[4.5]decan-8-yl}phenyl)-3,4-dihydro-1H-2-benzopyran-6-sulfonamide] was run?
A: Its AC50 is 2.01 to 8 µM.

Q: For `CN(C)S(=O)(=O)c1ccc(S(=O)(=O)Nc2ccccc2N2CCCC3(CCCOC3)C2)cc1` (stereo not shown) [Compound A-511, N1,N1-dimethyl-N4-(2-{2-oxa-8-azaspiro[5.5]undecan-8-yl}phenyl)benzene-1,4-disulfonamide], which AC50 (Homo sapiens, HeLa, 2 h) is on record?
A: The AC50 was at most 2 µM.

Q: `COCC1(F)CCN(c2ccccc2NS(=O)(=O)c2ccc(S(=O)(=O)N(C)C)cc2)CC1` [Compound A-686, N4-[2-[4-fluoro-4-(methoxymethyl)piperidin-1-yl]phenyl}-N1,N1-dimethylbenzene-1,4-disulfonamide] was tested. Which AC50 (Homo sapiens, HeLa, 2 h) did it give?
A: Its AC50 is at most 2 µM.

Q: For `C[C@@H](c1cccc(F)c1N1CCC(C(F)(F)F)CC1)S(=O)(=O)c1ccc(S(=N)(=O)N(C)C)cc1` (single isomer, unassigned) [Compound A-935], which AC50 is on record?
A: Its AC50 is at most 2 µM.

Q: With `CN(C)S(=O)(=O)c1ccc(S(=O)(=O)Cc2ccccc2N2CCC(c3c(F)cccc3F)CC2)cc1` [Compound A-229, 4-((2-(4-(2,6-difluorophenyl)piperidin-1-yl)benzyl)sulfonyl)-N,N-dimethylbenzenesulfonamide] as the molecule, how does the AC50 (Homo sapiens, HeLa, 2 h) read?
A: Its AC50 is at most 2 µM.

Q: `Cc1ccc(S(=O)(=O)Nc2cccc(F)c2N2CCC(CN3C[C@@H](C)O[C@@H](C)C3)CC2)cc1` [Compound A-771, N-[2-(4-{[(2R,6S)-2,6-dimethylmorpholin-4-yl]methyl}piperidin-1-yl)-3-fluorophenyl]-4-methylbenzene-1-sulfonamide] was tested. Which AC50 (Homo sapiens, HeLa, 2 h) did it give?
A: The AC50 was at most 2 µM.

Q: How did the AC50 (Homo sapiens, HeLa, 2 h) turn out when `C[C@@H]1CN(CC2CCN(c3c(NS(=O)(=O)c4ccc(S(=O)(=O)N(C)C)cc4)cccc3C(F)F)CC2)C[C@H](C)O1` [Compound A-831, N4-[3-(difluoromethyl)-2-(4-{[(2R,6S)-2,6-dimethylmorpholin-4-yl]methyl}piperidin-1-yl)phenyl]-N1,N1-dimethylbenzene-1,4-disulfonamide] was run?
A: Its AC50 is at most 2 µM.

Q: For `COCC1(C)CCN(c2ccccc2NS(=O)(=O)Cc2ccc(F)cc2)CC1` [Compound A-580, 1-(4-fluorophenyl)-N-{2-[4-(methoxymethyl)-4-methylpiperidin-1-yl]phenyl}methanesulfonamide], which AC50 (Homo sapiens, HeLa, 2 h) is on record?
A: Its AC50 is 8.01 to 9.99 µM.

Q: `COCC1(C)CCN(c2ccccc2C(C)S(=O)(=O)c2ccc(S(=O)(=O)N(C)C)cc2)CC1` (single isomer, unassigned; enantiomer 2) [Compound A-699, 4-((1-(2-(4-(methoxymethyl)-4-methylpiperidin-1-yl)phenyl)ethyl)sulfonyl)-N,N-dimethylbenzenesulfonamide, enantiomer 2] was tested. Which AC50 did it give?
A: The AC50 was 2.01 to 8 µM.

Q: How did the AC50 (Homo sapiens, HeLa, 2 h) turn out when `CN(C)S(=O)(=O)c1ccc(S(=O)(=O)Nc2ccccc2N2CCC(c3ccc(Cl)cc3F)CC2)c(F)c1` [Compound A-149, N4-{2-[4-(4-chloro-2-fluorophenyl)piperidin-1-yl]phenyl}-3-fluoro-N1,N1-dimethylbenzene-1,4-disulfonamide] was run?
A: The AC50 was at most 2 µM.

Q: `CN(C)S(=O)(=O)c1ccc(S(=O)(=O)Cc2cc(Cl)ccc2N2CCOCC2)cc1` [Compound A-312, 4-{[5-chloro-2-(morpholin-4-yl)phenyl]methanesulfonyl}-N,N-dimethylbenzene-1-sulfonamide] was tested. Which AC50 (Homo sapiens, HeLa, 2 h) did it give?
A: The AC50 was at least 10 µM.

Q: How did the AC50 (Homo sapiens, HeLa, 2 h) turn out when `CN1CC2(CCN(c3c(F)cccc3NS(=O)(=O)c3ccc(S(=O)(=O)N(C)C)cc3)CC2)OC1=O` [Compound A-764, N4-(3-fluoro-2-{3-methyl-2-oxo-1-oxa-3,8-diazaspiro[4.5]decan-8-yl}phenyl)-N1,N1-dimethylbenzene-1,4-disulfonamide] was run?
A: Its AC50 is 2.01 to 8 µM.

Q: `CC(C1CCN(c2c(F)cccc2NS(=O)(=O)c2ccc(S(=N)(=O)N(C)C)cc2)CC1)N1C[C@@H](C)O[C@@H](C)C1` (single isomer, unassigned) [Compound A-872] was tested. Which AC50 did it give?
A: The AC50 was at most 2 µM.

Q: `CC(c1cccc(F)c1N1CCCCC1)S(=O)(=O)c1ccc2c(c1)CCS2(=O)=O` (stereo not shown) [Compound A-920, 5-{1-[3-fluoro-2-(piperidin-1-yl)phenyl]ethanesulfonyl}-2,3-dihydro-1λ^6-benzothiophene-1,1-dione] was tested. Which AC50 (Homo sapiens, HeLa, 2 h) did it give?
A: Its AC50 is at least 10 µM.

Q: Which AC50 (Homo sapiens, HeLa, 2 h) does the source give for `C[C@@H]1CN(CC2CCN(c3c(F)cccc3NS(=O)(=O)C3(c4ccccc4)CC3)CC2)C[C@H](C)O1` [Compound A-767, N-[2-(4-{[(2R,6S)-2,6-dimethylmorpholin-4-yl]methyl}piperidin-1-yl)-3-fluorophenyl]-1-phenylcyclopropane-1-sulfonamide] here?
A: Its AC50 is at most 2 µM.

Q: Which AC50 (Homo sapiens, HeLa, 2 h) does the source give for `CN(C)S(=O)(=O)c1ccc([S+]([O-])c2ccccc2N2CCC(c3ccc(Cl)cc3F)CC2)cc1` (stereo not shown) [Compound A-181, 4-((2-(4-(4-chloro-2-fluorophenyl)piperidin-1-yl)phenyl)sulfinyl)-N,N-dimethylbenzenesulfonamide] here?
A: The AC50 was 2.01 to 8 µM.
